Laboratory results: paper PMC7614687, “Modulation of the substrate specificity of the kinase PDK1 by distinct conformations of the full-length protein*” (Science signaling, 2023)

Legend:
[1] = target: T1, PDK1 (Homo sapiens, UniProt O15530); experiment: Thermo Fisher Scientific/Invitrogen PDK1 cascade assay (Akt2 as substrate, no PIP3); format: biochemical; details: 10-point titration
T1 sequence (O15530 1-556): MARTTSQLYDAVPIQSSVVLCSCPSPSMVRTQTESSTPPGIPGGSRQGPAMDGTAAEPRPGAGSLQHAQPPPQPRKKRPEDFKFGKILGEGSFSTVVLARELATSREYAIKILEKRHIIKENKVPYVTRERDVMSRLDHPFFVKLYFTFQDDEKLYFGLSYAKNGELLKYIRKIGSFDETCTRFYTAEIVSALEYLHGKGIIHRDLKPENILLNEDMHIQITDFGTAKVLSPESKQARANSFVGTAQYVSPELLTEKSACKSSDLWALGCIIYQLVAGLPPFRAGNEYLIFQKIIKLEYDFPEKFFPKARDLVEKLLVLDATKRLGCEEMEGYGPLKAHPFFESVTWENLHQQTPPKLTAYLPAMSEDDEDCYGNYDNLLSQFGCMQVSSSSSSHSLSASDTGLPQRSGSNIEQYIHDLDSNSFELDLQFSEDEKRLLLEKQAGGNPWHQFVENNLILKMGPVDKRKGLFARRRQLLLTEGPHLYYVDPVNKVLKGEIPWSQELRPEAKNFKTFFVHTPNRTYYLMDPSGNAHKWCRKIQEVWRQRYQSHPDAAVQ
Method: To explore the structural basis of this effect, we synthesized additional inositol phosphate derivatives related to IP5 (Fig. 2A). […] The first was Thermo Fisher Scientific/Invitrogen PDK1 cascade assay, which uses Akt as substrate in a coupled, cascade-type assay and in which the activity of PDK1 is measured by its ability to activate Akt. The second was the “PDK1 Direct” assay, which uses a peptide substrate (Ser/Thr 07) of undisclosed sequence (table S1) as the substrate of PDK1 and a readout of FRET between coumarin and fluorescein (5-FAM). […] Scyllo-IP5 and another synthetic derivative of IP5, 2-O-(2-aminoethyl)-IP5 (AMR1474), were weak inhibitors in the same assays (10% or less inhibition at 1 μM) (table S2).
The commercial PDK1 activity assays were provided by Thermo Fisher Scientific as a service. […] The ¨PDK1 Direct¨ biochemical assay measures the phosphorylation of a peptide termed Ser/Thr 07 that is labeled with a donor fluorophore (coumarin) and an acceptor fluorophore (fluorescein) to create a FRET pair. The peptide substrate was first incubated with the kinase and ATP-Mg (25 μM ATP), then non-phosphorylated peptide was cleaved with a protease. The remaining FRET corresponds to the phosphorylated substrate. […]

[2] = target: T2, PDK1_1-556 (Homo sapiens, UniProt O15530); experiment: PDK1-mediated activation/phosphorylation of Akt and SGK in vitro (cascade format, Western blot); format: biochemical; details: absence of PIP3, HYG8 1 μM
T2 construct: effect of HYG8 on the thermal stability (ΔTm) of PDK1_1-556 (H) and PDK1_50-359 (I); His (N); made in house; host or cells: Sf9 insect cells (baculovirus)
T2 sequence (O15530 1-556): T1 sequence (O15530 1-556)
Method: PDK1 activity was also assessed in a cascade format that measures the ability of PDK1 to activate its substrates GST-ΔN-SGK [S422D], GST-Akt [S473D] and GST-Akt ΔPH [S473D], as previously performed ([24], [28]). SGK and Akt proteins mutated at the HM phosphorylation site to Asp can be activated by phosphorylation at the activation loop by PDK1. In brief, we preincubated SGK or Akt (0.5 μg) with 10 ng or 100 ng of PDK1 at room temperature (22°C) in a buffer containing 50 mM Tris pH 7.5, 0.05 mg/ml BSA, 0.1% β-mercaptoethanol, 10 mM MgCl2, 100 μM ATP (20 μl). We measured the activity of SGK or Akt by adding 30 μl buffer containing the polypeptide substrate KK-Crosstide ([…]; 100 μM) and [γ^32P]ATP (100 μM). […]
PDK1 activity was also measured by incubating PDK1 with protein kinase substrates and measuring their phosphorylation by Western blot using phospho-specific antibodies to the activation loop phosphorylation site, essentially as previously performed ([24]), with the modification that the secondary antibodies were fluorescent for improved quantification. […] The basal phosphorylation of substrates was determined in the absence of PDK1, while “maximal” phosphorylation corresponds to the phosphorylation of substrates with excess PDK1 (10 nM PDK1 for Akt/PKB substrates and 1 nM PDK1 for SGK). […] Fluorescent signals were measured using Odyssey Fc (Licor). […]

Hill slope, Cascade [1]: 2.19
IC50 ([1]; absence of PIP3): 6.42 nM
activation of Akt and Akt ΔPH by PDK1 [2]: selectively inhibited
activation of SGK by PDK1 [2]: did not inhibit
Compound: O=C(O[C@H]1[C@@H](OP(=O)(O)O)[C@H](OP(=O)(O)O)[C@@H](OP(=O)(O)O)[C@H](OP(=O)(O)O)[C@H]1OP(=O)(O)O)c1ccccc1 [HYG8, 2-O-benzoyl-IP5]
